Test results: publication PMC6796237 (ACS Omega, 2019)

Target: recombinant HCV NS3/4A GT1b wt (Hepatitis C virus genotype 1b, UniProt Q9WMX2)
Assay: HCV NS3/4A enzymatic inhibition assay, wild type
Type: biochemical
Settings: compounds at 13.08, 14.68, 4.60 μM of 1, 12, 22; 40 nM enzyme

Chain of recombinant HCV NS3/4A GT1b wt (Q9WMX2 1027-1657 limits assumed): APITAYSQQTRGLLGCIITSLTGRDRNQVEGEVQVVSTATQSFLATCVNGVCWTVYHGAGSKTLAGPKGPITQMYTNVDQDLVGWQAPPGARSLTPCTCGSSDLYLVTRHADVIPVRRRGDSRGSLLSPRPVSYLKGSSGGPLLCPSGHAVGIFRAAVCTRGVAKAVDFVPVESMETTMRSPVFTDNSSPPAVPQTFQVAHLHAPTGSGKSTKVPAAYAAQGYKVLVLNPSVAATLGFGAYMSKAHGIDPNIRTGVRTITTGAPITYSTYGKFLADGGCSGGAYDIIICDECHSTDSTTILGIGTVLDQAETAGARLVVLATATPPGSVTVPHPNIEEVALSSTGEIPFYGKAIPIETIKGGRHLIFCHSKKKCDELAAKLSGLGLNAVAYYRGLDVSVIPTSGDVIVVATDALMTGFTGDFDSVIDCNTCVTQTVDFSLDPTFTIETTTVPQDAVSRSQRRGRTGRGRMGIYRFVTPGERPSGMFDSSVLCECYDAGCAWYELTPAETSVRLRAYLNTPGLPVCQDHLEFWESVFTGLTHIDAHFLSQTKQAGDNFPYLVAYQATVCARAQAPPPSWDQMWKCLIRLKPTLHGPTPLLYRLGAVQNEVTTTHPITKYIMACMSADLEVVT
Chain of recombinant HCV NS3/4A GT1b wt (Q9WMX2 1658-1711 partner limits assumed): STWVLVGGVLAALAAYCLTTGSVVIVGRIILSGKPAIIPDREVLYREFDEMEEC

For “3-(1H-Indol-3-yl)-2-(3-(4-isopropylphenyl)ureido)-N-(3-(piperidin-1-yl)propyl)propenamide [Compound 22]”, the “Decrease of HCV NS3/4A activity” value was “about 50%”.
